Measured values as given in ChEMBL document CHEMBL1201862, “PubChem BioAssay data set” (2004).
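Cultured in 96-well plates, cells were exposed to test compound for 48 hours across five concentrations. The concentration for 50% growth inhibition is given as GI50.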 Active and inactive are the calls of the source. Cut-off read from the data, not from the text of the source: active = GI50 up to about 1.1 µM and inactive = higher.

Assays:
Assay in all cases: growth of human tumour cells (NCI), 48 h
UO-31 = tested on: UO-31
786-0 = tested on: 786-0
MDA-MB-231 = tested on: MDA-MB-231
NCI-H522 = tested on: NCI-H522
ACHN = tested on: ACHN
OVCAR-5 = tested on: OVCAR-5
SK-MEL-28 = tested on: SK-MEL-28
MDA-N = tested on: MDA-N
SK-OV-3 = tested on: SK-OV-3
T47D = tested on: T47D
HL-60 = tested on: HL-60
OVCAR-8 = tested on: OVCAR-8
HCC 2998 = tested on: HCC 2998
HCT-116 = tested on: HCT-116
HT-29 = tested on: HT-29
Hs-578T = tested on: Hs-578T
SR = tested on: SR
MDA-MB-435 = tested on: MDA-MB-435
OVCAR-4 = tested on: OVCAR-4
NCI-H226 = tested on: NCI-H226

Row | SMILES | GI50 (UO-31) | GI50 (786-0) | GI50 (MDA-MB-231) | GI50 (NCI-H522) | GI50 (ACHN) | GI50 (OVCAR-5) | GI50 (SK-MEL-28) | GI50 (MDA-N) | GI50 (SK-OV-3) | GI50 (T47D) | GI50 (HL-60) | GI50 (OVCAR-8) | GI50 (HCC 2998) | GI50 (HCT-116) | GI50 (HT-29) | GI50 (Hs-578T) | GI50 (SR) | GI50 (MDA-MB-435) | GI50 (OVCAR-4) | GI50 (NCI-H226)
1 | COC1(c2ccccc2)N=C(S)NN=C1c1ccccc1 (stereo not given) | > 100 µM (inactive) | 41.7 µM (inactive) | 27.5 µM (inactive) | 24.9 µM (inactive) | > 100 µM (inactive) | 78.2 µM (inactive) | 85.1 µM (inactive) | 21.5 µM (inactive) | 26.7 µM (inactive) | 33.5 µM (inactive) | 21 µM (inactive) | 29.3 µM (inactive) | 19.2 µM (inactive) | 35.5 µM (inactive) | 44.2 µM (inactive) | 42.4 µM (inactive) | 29.4 µM (inactive) | 19.5 µM (inactive) |  | 
2 | Cc1nc2ccccc2c(=O)n1NC(=O)Cc1ccccc1 | > 100 µM (inactive) | > 100 µM (inactive) | > 100 µM (inactive) | > 100 µM (inactive) | > 100 µM (inactive) | > 100 µM (inactive) | > 100 µM (inactive) | > 100 µM (inactive) | > 100 µM (inactive) | > 100 µM (inactive) | > 100 µM (inactive) | > 100 µM (inactive) | > 100 µM (inactive) | > 100 µM (inactive) | > 100 µM (inactive) | > 100 µM (inactive) | > 100 µM (inactive) | > 100 µM (inactive) | > 100 µM (inactive) | > 100 µM (inactive)
3 | OC(CC(O)(C(F)(F)F)C(F)(F)F)C(O)c1ccco1 (stereo not given) | > 10 µM (inactive) | > 10 µM (inactive) | > 10 µM (inactive) | > 10 µM (inactive) | > 10 µM (inactive) |  | > 10 µM (inactive) | > 10 µM (inactive) | > 10 µM (inactive) | > 10 µM (inactive) | > 10 µM (inactive) | > 10 µM (inactive) | > 10 µM (inactive) | > 10 µM (inactive) | > 10 µM (inactive) | > 10 µM (inactive) | > 10 µM (inactive) | > 10 µM (inactive) | > 10 µM (inactive) | > 10 µM (inactive)
4 | CSc1c(C#N)c(O)n(-c2ccc(Cl)cc2)c(=O)c1C#N | 72.9 µM (inactive) | > 100 µM (inactive) | > 100 µM (inactive) | 40.5 µM (inactive) |  | > 100 µM (inactive) | > 100 µM (inactive) | > 100 µM (inactive) | > 100 µM (inactive) | 64.9 µM (inactive) | 28.1 µM (inactive) | > 100 µM (inactive) | > 100 µM (inactive) | 63.5 µM (inactive) | > 100 µM (inactive) | > 100 µM (inactive) | > 100 µM (inactive) | > 100 µM (inactive) | > 100 µM (inactive) | 48.1 µM (inactive)
5 | O=C(CC(C(=O)c1cccs1)c1cccs1)c1ccccc1Cl (stereo not given) | 29.7 µM (inactive) | > 100 µM (inactive) | > 100 µM (inactive) |  | > 100 µM (inactive) | > 100 µM (inactive) | 81.7 µM (inactive) | 97.7 µM (inactive) | > 100 µM (inactive) | 52 µM (inactive) | 76.4 µM (inactive) | > 100 µM (inactive) | > 100 µM (inactive) | 52.1 µM (inactive) | 76.6 µM (inactive) | 75.3 µM (inactive) | 39.5 µM (inactive) | > 100 µM (inactive) | > 100 µM (inactive) | > 100 µM (inactive)
6 | C=C1CC(COc2ccc3c(C)cc(=O)oc3c2)(c2ccccc2)OC1=O (stereo not given) | 4.88 µM (inactive) | 1.48 µM (inactive) | 2.74 µM (inactive) | 1.74 µM (inactive) | 3.37 µM (inactive) | 12.1 µM (inactive) | 2.41 µM (inactive) | 1.95 µM (inactive) | 4.17 µM (inactive) | 2.24 µM (inactive) | 0.263 µM (active) | 2.26 µM (inactive) | 5.18 µM (inactive) | 1.27 µM (inactive) | 1.29 µM (inactive) | 6.82 µM (inactive) | 1.7 µM (inactive) | 2.43 µM (inactive) | 2.16 µM (inactive) | 6.11 µM (inactive)
7 | CCN(CCCl)c1ccc(NC(=O)c2cc(C(=O)NCCN(C)C)cc(C(=O)Nc3ccc(N(CC)CCCl)cc3)c2)cc1 | > 100 µM (inactive) | 0.942 µM (active) | 15.6 µM (inactive) | 2.3 µM (inactive) | 5.25 µM (inactive) | 16.5 µM (inactive) | 16.6 µM (inactive) | 11.1 µM (inactive) | 4.26 µM (inactive) | 18.7 µM (inactive) | 0.0743 µM (active) | 3.57 µM (inactive) | 10.6 µM (inactive) | 3.03 µM (inactive) | 1.57 µM (inactive) | 0.513 µM (active) | 0.659 µM (active) | 8.32 µM (inactive) | 9.38 µM (inactive) | 3.94 µM (inactive)
8 | O=C(NC12CC3CC(CC(C3)C1)C2)n1cnc2c(Cl)ncnc21 | > 100 µM (inactive) | > 100 µM (inactive) | 42.8 µM (inactive) | 27.9 µM (inactive) | 21.2 µM (inactive) | > 100 µM (inactive) | 42.9 µM (inactive) | 21.6 µM (inactive) | 34.3 µM (inactive) | > 100 µM (inactive) | 3.28 µM (inactive) | 26 µM (inactive) | 19.1 µM (inactive) | 37.8 µM (inactive) | 27 µM (inactive) | 32.3 µM (inactive) | 10.8 µM (inactive) | 19.1 µM (inactive) |  | 
9 | COc1cc(OC)c(/C=C\c2ccnc3ccccc23)c(OC)c1 | 0.859 µM (active) | 5.53 µM (inactive) | 3.05 µM (inactive) | 3.76 µM (inactive) | 4.41 µM (inactive) | 6.05 µM (inactive) | 5.37 µM (inactive) | 0.329 µM (active) | 6.44 µM (inactive) | 3.12 µM (inactive) | 0.347 µM (active) |  | 9.31 µM (inactive) | 2.5 µM (inactive) | 2.67 µM (inactive) | 2.64 µM (inactive) | 0.689 µM (active) | 0.404 µM (active) | 0.349 µM (active) | 4.11 µM (inactive)
10 | C=CCc1cccc2cc(C(=O)Nc3ccccc3)c(=N)oc12 |  | 30.3 µM (inactive) | > 100 µM (inactive) | 10.4 µM (inactive) | 10.1 µM (inactive) | 38.8 µM (inactive) | 80.4 µM (inactive) | 70.6 µM (inactive) | 61.7 µM (inactive) | 11.9 µM (inactive) | > 100 µM (inactive) | > 100 µM (inactive) | 4.8 µM (inactive) | 18.1 µM (inactive) | > 100 µM (inactive) | 37.6 µM (inactive) | > 100 µM (inactive) | 27.9 µM (inactive) | 15.6 µM (inactive) | 36.6 µM (inactive)
11 | O=C(Nc1ccccc1)c1cc(S(=O)(=O)Nc2n[nH]c(=O)n2-c2ccccc2)c(S)cc1Cl | > 100 µM (inactive) | > 100 µM (inactive) | > 100 µM (inactive) | > 100 µM (inactive) |  | > 100 µM (inactive) | > 100 µM (inactive) | > 100 µM (inactive) | > 100 µM (inactive) | > 100 µM (inactive) | > 100 µM (inactive) | > 100 µM (inactive) | > 100 µM (inactive) | > 100 µM (inactive) | > 100 µM (inactive) | > 100 µM (inactive) | > 100 µM (inactive) | > 100 µM (inactive) | > 100 µM (inactive) | > 100 µM (inactive)
12 | C=C(CN1CC2C[C@](C(=O)OC)(c3cc4ccccc4[nH]3)C1C(OC)C2OC)S(=O)(=O)c1ccccc1 (stereo not given in full) | 1.49 µM (inactive) | 2.4 µM (inactive) | 3.35 µM (inactive) | 1.7 µM (inactive) | 3.01 µM (inactive) | 3.71 µM (inactive) | 7.53 µM (inactive) | 2.69 µM (inactive) | 3.49 µM (inactive) | 4.6 µM (inactive) | 1.92 µM (inactive) | 3.14 µM (inactive) | 1.87 µM (inactive) | 2.54 µM (inactive) | 2.72 µM (inactive) | 2.5 µM (inactive) | 2.7 µM (inactive) | 2.29 µM (inactive) | 3.04 µM (inactive) | 5.07 µM (inactive)
13 | CC(OP(=O)(O)O)C(N)C(=O)O (stereo not given) | > 100 µM (inactive) | > 100 µM (inactive) | > 100 µM (inactive) | > 100 µM (inactive) | > 100 µM (inactive) | > 100 µM (inactive) | > 100 µM (inactive) | > 100 µM (inactive) | > 100 µM (inactive) | > 100 µM (inactive) | > 100 µM (inactive) | > 100 µM (inactive) | > 100 µM (inactive) | > 100 µM (inactive) | > 100 µM (inactive) | > 100 µM (inactive) | > 100 µM (inactive) | > 100 µM (inactive) | > 100 µM (inactive) | > 100 µM (inactive)
14 | C[N+]1(C)CC[N+](C)(C)[BH-]1C(O)O | > 100 µM (inactive) | > 100 µM (inactive) | > 100 µM (inactive) | > 100 µM (inactive) | > 100 µM (inactive) | > 100 µM (inactive) | > 100 µM (inactive) | > 100 µM (inactive) |  | > 100 µM (inactive) | > 100 µM (inactive) | > 100 µM (inactive) | > 100 µM (inactive) | > 100 µM (inactive) | > 100 µM (inactive) | > 100 µM (inactive) | > 100 µM (inactive) | > 100 µM (inactive) | > 100 µM (inactive) | 
15 | CN(C)Cc1cc(C(=O)/C=C/c2ccc([N+](=O)[O-])cc2)cc(CN(C)C)c1O | 16.1 µM (inactive) | 2.31 µM (inactive) | 14.9 µM (inactive) | 4.74 µM (inactive) | 3.33 µM (inactive) | 16.6 µM (inactive) |  | 11.7 µM (inactive) |  | 13.4 µM (inactive) | 2.07 µM (inactive) | 25 µM (inactive) | 17.4 µM (inactive) | 2.86 µM (inactive) | 9.04 µM (inactive) | 18.8 µM (inactive) | 4.12 µM (inactive) | 7.1 µM (inactive) |  | 3.9 µM (inactive)
